Results as given in patent US20250235453A1, “TRIAZOLOPYRIDAZINE COMPOUNDS USEFUL AS RAC1 INHIBITORS” (Revere Pharmaceuticals, priority 2021, published 2025).

Target: T1, Rac1 (Homo sapiens, UniProt P63000)
T1 construct: His (N)
Assay: Rac Activation AlphaScreen Assay (Rac1 AS)
Format: biochemical
Conditions: Rac1 AS assay, dose leading to 50% disruption of complex; read-out: IC50
Experimental: The IC50 values reported in Tables 1-6 were obtained from the Rae Activation AlphaScreen Assay (Rac1 AS) assay described in subsection 2 under the section entitled “In Vitro Assays”. “†” represents an IC50 of greater than 100 uM; “††” represents an IC50 of greater than 10 uM and less than 50 uM; and “†††” represents an IC50 of less than 10 uM. “POC” means percent of control. […] Lower POC values reflect greater inhibition. “NT” means not tested.
2. Rac Activation AlphaScreen Assay (Rac1 AS)
AlphaScreen® assays were performed in 96-well microplates in a final reaction volume of 60 μL. Recombinant His-Rac1, recombinant GST-PBD (PAK Binding Domain), donor and acceptor beads (PerkinElmer), and inhibitors were incubated in exchange buffer (20 mM Tris pH 7.5, 50 mM NaCl, 1 mM MgCl2, 1 mM EDTA, 500 nM GTPyS (guanosine 5′-[Y-thio]triphosphate)) at 37° C. Readings were performed on a Tecan M1000 pro microplate reader after 1 hour. Data was analyzed using the GraphPad Prism software (GraphPad Software, Inc.), and IC50 (dose leading to 50% disruption of complex) was calculated from the dose-response curves.

Structure (SMILES)	IC50
O=C(Cc1ccc(Cl)cc1)Nc1ccc(-c2ccc3nnc(-c4ccncc4)n3n2)cc1 [Compound 7]	> 100 µM
O=C(Cc1cccc(F)c1)Nc1ccc(-c2ccc3nnc(-c4ccncc4)n3n2)cc1 [Compound 8]	> 100 µM
Cc1ccc(CC(=O)Nc2ccc(-c3ccc4nnc(-c5ccncc5)n4n3)cc2)cc1C [Compound 9]	10 to 50 µM
Cc1cc(C)cc(CC(=O)Nc2ccc(-c3ccc4nnc(-c5ccncc5)n4n3)cc2)c1 [Compound 11]	10 to 50 µM
Cc1ccccc1CC(=O)Nc1ccc(-c2ccc3nnc(-c4ccncc4)n3n2)cc1 [Compound 13]	10 to 50 µM
O=C(Cc1ccc2ccccc2c1)Nc1ccc(-c2ccc3nnc(-c4ccncc4)n3n2)cc1 [Compound 16]	10 to 50 µM
O=C(Cc1cccc([N+](=O)[O-])c1)Nc1ccc(-c2ccc3nnc(-c4ccncc4)n3n2)cc1 [Compound 17]	10 to 50 µM
O=C(Cc1cccs1)Nc1ccc(-c2ccc3nnc(-c4cccnc4)n3n2)cc1 [Compound 18]	10 to 50 µM
O=C(Cc1ccc2ccccc2n1)Nc1ccc(-c2ccc3nnc(-c4ccccn4)n3n2)cc1 [Compound 20]	> 100 µM
O=C(Cc1ccc(Cl)nc1)Nc1ccc(-c2ccc3nnc(-c4ccccn4)n3n2)cc1 [Compound 21]	10 to 50 µM
COc1cccc(CC(=O)Nc2ccc(-c3ccc4nnc(-c5cccs5)n4n3)cc2)c1 [Compound 25]	10 to 50 µM
Cc1nnc2ccc(-c3ccc(NC(=O)Cc4ccco4)cc3)nn12 [Compound 31]	> 100 µM
O=C(Nc1cccc(-c2ccc3nnc(-c4cccnc4)n3n2)c1)c1ccc2ccccc2c1 [Compound 49]	10 to 50 µM
COc1cccc(C(=O)Nc2cccc(-c3ccc4nnc(-c5ccc(C)o5)n4n3)c2)c1 [Compound 79]	< 10 µM
Cc1ccc(-c2nnc3ccc(-c4cccc(NC(=O)c5ccc(F)cc5)c4)nn23)o1 [Compound 80, 4-fluoro-N-(3-(3-(5-methylfuran-2-yl)-[1,2,4]triazolo[4,3-b]pyridazin-6-yl)phenyl)benzamide]	< 10 µM
Cc1ccc(-c2nnc3ccc(-c4cccc(NC(=O)c5ccc(F)c(Cl)c5)c4)nn23)o1 [Compound 81, 3-chloro-4-fluoro-N-(3-(3-(5-methylfuran-2-yl)-[1,2,4]triazolo[4,3-b]pyridazin-6-yl)phenyl)benzamide]	< 10 µM
Cc1ccc(-c2nnc3ccc(-c4cccc(NC(=O)c5cccc(Cl)c5)c4)nn23)o1 [Compound 82, 3-chloro-N-(3-(3-(5-methylfuran-2-yl)-[1,2,4]triazolo[4,3-b]pyridazin-6-yl)phenyl)benzamide]	< 10 µM
Cc1ccc(-c2nnc3ccc(-c4cccc(NC(=O)c5cccc(Br)c5)c4)nn23)o1 [Compound 83]	< 10 µM
Cc1ccc(-c2nnc3ccc(-c4cccc(NC(=O)c5cccc(F)c5)c4)nn23)o1 [Compound 84]	< 10 µM

Structure (SMILES)	IC50
Cc1ccc(-c2nnc3ccc(-c4cccc(NC(=O)c5ccc(F)c(F)c5)c4)nn23)o1 [Compound 85]	< 10 µM
CSc1cc(C(=O)Nc2cccc(-c3ccc4nnc(-c5ccc(C)o5)n4n3)c2)ccc1F [Compound 86]	< 10 µM
CCSc1cccc(C(=O)Nc2cccc(-c3ccc4nnc(-c5ccc(C)o5)n4n3)c2)c1 [Compound 87]	< 10 µM
Cc1ccc(-c2nnc3ccc(-c4cccc(NC(=O)c5cccc(SC(C)C)c5)c4)nn23)o1 [Compound 88, 3-(isopropylthio)-N-(3-(3-(5-methylfuran-2-yl)-[1,2,4]triazolo[4,3-b]pyridazin-6-yl)phenyl)benzamide]	< 10 µM
Cc1cccc(C(=O)Nc2cccc(-c3ccc4nnc(-c5ccc(C)o5)n4n3)c2)c1 [Compound 89]	< 10 µM
CCc1cccc(C(=O)Nc2cccc(-c3ccc4nnc(-c5ccc(C)o5)n4n3)c2)c1 [Compound 90, 3-ethyl-N-(3-(3-(5-methylfuran-2-yl)-[1,2,4]triazolo[4,3-b]pyridazin-6-yl)phenyl)benzamide]	< 10 µM
Cc1ccc(-c2nnc3ccc(-c4cccc(NC(=O)c5ccc(F)c(SC(C)C)c5)c4)nn23)o1 [Compound 91]	< 10 µM
Cc1ccc(-c2nnc3ccc(-c4cccc(NC(=O)c5ccc(F)c(C)c5)c4)nn23)o1 [Compound 92]	< 10 µM
CCc1cc(C(=O)Nc2cccc(-c3ccc4nnc(-c5ccc(C)o5)n4n3)c2)ccc1F [Compound 93, 3-ethyl-4-fluoro-N-(3-(3-(5-methylfuran-2-yl)-[1,2,4]triazolo[4,3-b]pyridazin-6-yl)phenyl)benzamide]	< 10 µM
Cc1ccc(-c2nnc3ccc(-c4cccc(NC(=O)c5ccc(F)c(Br)c5)c4)nn23)o1 [Compound 94]	< 10 µM
COc1cccc(C(=O)Nc2cccc(-c3ccc4nnc(-c5cncs5)n4n3)c2)c1 [Compound 98]	< 10 µM
O=C(Nc1cccc(-c2ccc3nnc(-c4cncs4)n3n2)c1)c1ccc(F)cc1 [Compound 99, 4-fluoro-N-(3-(3-(thiazol-5-yl)-[1,2,4]triazolo[4,3-b]pyridazin-6-yl)phenyl)benzamide]	< 10 µM
Cc1ccc(-c2nnc3ccc(-c4cccc(NS(=O)(=O)Cc5ccc(F)cc5F)c4)nn23)o1 [Compound 106]	< 10 µM
COc1ccc(CS(=O)(=O)Nc2cccc(-c3ccc4nnc(-c5cccnc5)n4n3)c2)cc1 [Compound 107]	< 10 µM
COc1ccc(CS(=O)(=O)Nc2cccc(-c3ccc4nnc(-c5cccnc5)n4n3)c2)c(OC)c1 [Compound 108]	< 10 µM
Cc1ccc(-c2nnc3ccc(-c4cccc(NC(=O)c5cnco5)c4)nn23)o1 [Compound 109]	< 10 µM
Cc1ccc(-c2nnc3ccc(-c4cccc(NC(=O)c5ccc(F)c(CCC(C)C)c5)c4)nn23)o1 [Compound 110]	< 10 µM
Cc1ccc(-c2nnc3ccc(-c4cccc(NC(=O)c5cccc(SC(C)(C)C)c5)c4)nn23)o1 [Compound 111]	< 10 µM

Other lines, results leading:

IC50	Structure (SMILES)
< 10 µM	O=C(Cc1cccc(Cl)c1)Nc1ccc(-c2ccc3nnc(-c4ccncc4)n3n2)cc1 [Compound 10]
< 10 µM	O=C(Cc1ccc(F)cc1)Nc1ccc(-c2ccc3nnc(-c4ccncc4)n3n2)cc1 [Compound 12]
< 10 µM	O=C(Cc1cccc2ccccc12)Nc1ccc(-c2ccc3nnc(-c4ccncc4)n3n2)cc1 [Compound 15]
< 10 µM	O=C(Cc1cccc2ccccc12)Nc1ccc(-c2ccc3nnc(-c4ccccn4)n3n2)cc1 [Compound 19]
< 10 µM	O=C(Cc1cccnc1Cl)Nc1ccc(-c2ccc3nnc(-c4ccccn4)n3n2)cc1 [Compound 22]
< 10 µM	O=C(Cc1cccc(F)c1)Nc1ccc(-c2ccc3nnc(-c4cccs4)n3n2)cc1 [Compound 24]
< 10 µM	O=C(Cc1ccc(F)cc1)Nc1ccc(-c2ccc3nnc(-c4cccs4)n3n2)cc1 [Compound 26]
< 10 µM	O=C(Cc1ccc(F)cc1F)Nc1ccc(-c2ccc3nnc(-c4cccs4)n3n2)cc1 [Compound 27]
< 10 µM	O=C(Cc1ccccc1Cl)Nc1ccc(-c2ccc3nnc(-c4cccs4)n3n2)cc1 [Compound 28]
< 10 µM	O=C(Cc1ccccc1)Nc1ccc(-c2ccc3nnc(-c4ccccn4)n3n2)cc1 [Compound 30]
< 10 µM	O=S(=O)(Cc1ccccc1)Nc1ccc(-c2ccc3nnc(-c4ccccn4)n3n2)cc1 [Compound 33]
< 10 µM	O=C(Cc1ccccc1Cl)Nc1cccc(-c2ccc3nnc(-c4cccnc4)n3n2)c1 [Compound 44]
< 10 µM	O=C(Cc1c[nH]c2ccccc12)Nc1cccc(-c2ccc3nnc(-c4cccnc4)n3n2)c1 [Compound 45]
< 10 µM	COc1cccc(CC(=O)Nc2cccc(-c3ccc4nnc(-c5cccnc5)n4n3)c2)c1 [Compound 46]
< 10 µM	O=C(Cc1cccs1)Nc1cccc(-c2ccc3nnc(-c4cccnc4)n3n2)c1 [Compound 51]
< 10 µM	O=C(Cc1ccc(Cl)cc1)Nc1cccc(-c2ccc3nnc(-c4cccnc4)n3n2)c1 [Compound 52]
< 10 µM	O=S(=O)(Cc1ccc(F)cc1F)Nc1cccc(-c2ccc3nnc(-c4cccnc4)n3n2)c1 [Compound 56]
< 10 µM	O=S(=O)(Cc1ccc2ccccc2c1)Nc1cccc(-c2ccc3nnc(-c4cccnc4)n3n2)c1 [Compound 57]
< 10 µM	CCc1ccc(CS(=O)(=O)Nc2cccc(-c3ccc4nnc(-c5cccnc5)n4n3)c2)s1 [Compound 59]
< 10 µM	Cc1ccc(CS(=O)(=O)Nc2cccc(-c3ccc4nnc(-c5cccnc5)n4n3)c2)s1 [Compound 60]
< 10 µM	O=S(=O)(Cc1ccccc1F)Nc1cccc(-c2ccc3nnc(-c4cccnc4)n3n2)c1 [Compound 62]
< 10 µM	O=S(=O)(Cc1cccc(F)c1)Nc1cccc(-c2ccc3nnc(-c4cccnc4)n3n2)c1 [Compound 63]
< 10 µM	Cn1cc(CC(=O)Nc2cccc(-c3ccc4nnc(-c5cccnc5)n4n3)c2)c2ccccc21 [Compound 74]
